The values below are quoted from earlier work in patent publication US11241426B2, “Aqueous composition for ophthalmic or nasal administration” (NITTO MEDIC CO., LTD., priority 2017, dated 2022).

The data set has as its target human H1 receptor (Homo sapiens, UniProt P35367).

Chain of human H1 receptor (P35367 whole entry): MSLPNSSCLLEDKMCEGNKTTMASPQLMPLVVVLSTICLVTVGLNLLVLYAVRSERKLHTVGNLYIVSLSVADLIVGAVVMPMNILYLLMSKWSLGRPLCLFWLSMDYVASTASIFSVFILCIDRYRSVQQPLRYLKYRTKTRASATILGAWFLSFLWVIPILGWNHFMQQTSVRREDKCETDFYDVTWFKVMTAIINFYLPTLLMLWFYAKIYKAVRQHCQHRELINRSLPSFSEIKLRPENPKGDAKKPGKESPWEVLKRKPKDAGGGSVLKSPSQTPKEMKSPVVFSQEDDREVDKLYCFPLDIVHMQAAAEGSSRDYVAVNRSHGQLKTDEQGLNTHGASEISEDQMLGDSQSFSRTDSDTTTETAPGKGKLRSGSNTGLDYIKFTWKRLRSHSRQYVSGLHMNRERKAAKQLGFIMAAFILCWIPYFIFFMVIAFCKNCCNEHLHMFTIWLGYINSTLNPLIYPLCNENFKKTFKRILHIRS

In the case of `O=C(O)COCCN1CCN([C@H](c2ccccc2)c2ccc(Cl)cc2)CC1` [Levocetirizine], the “affinity for the human H1 receptor, fold higher than that of cetirizine” value (relative to cetirizine) is “about 2 fold”. For the setting “relative to dextrocetirizine”, the “affinity for the human H1 receptor, fold higher than that of the S-enantiomer, dextrocetirizine” value is reported as “about 30 fold”.
